Experiments:
Type in all cases: in vivo
Setaria viridis [1] = assay: Post-emergence herbicidal test, SETVI; set-up: key to herbicidal effect (0-9 scale) SETVI / herbicidal rating SETVI: A rating 0 indicates growth as untreated control; a rating 9 indicates death; settings: for herbicidal effect (0-9 scale) SETVI: POST, 21 days after spraying
Summary of the method: (§1)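 Herbicidal effect is recorded on a linear 0-9 scale, where 0 means growth like untreated control and 9 means death, with one unit approximating 10% more effect.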

Zea mays [2] = assay: Pre-emergence herbicidal test, ZEAMX; set-up: key to herbicidal effect (0-9 scale) ZEAMX / herbicidal rating ZEAMX: A rating 0 indicates growth as untreated control; a rating 9 indicates death; settings: for herbicidal effect (0-9 scale) ZEAMX: PRE, 21 days after spraying
Galium aparine [3] = assay: Post-emergence herbicidal test, GALAP; set-up: key to herbicidal effect (0-9 scale) GALAP / herbicidal rating GALAP: A rating 0 indicates growth as untreated control; a rating 9 indicates death; settings: for herbicidal effect (0-9 scale) GALAP: POST, 21 days after spraying
Summary of the method: as §1

Triticum aestivum [4] = assay: Post-emergence herbicidal test, TRZAW; set-up: key to herbicidal effect (0-9 scale) TRZAW: A rating 0 indicates growth as untreated control; a rating 9 indicates death; settings: for herbicidal effect (0-9 scale) TRZAW: POST, 21 days after spraying
Summary of the method: (§2)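 Test plants in pots received water-diluted acetone formulations by post-emergence spraying, dosed near 100-1000 g/ha.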

Abutilon theophrasti [5] = assay: Pre-emergence herbicidal test, ABUTH; set-up: key to herbicidal effect (0-9 scale) ABUTH / herbicidal rating ABUTH: A rating 0 indicates growth as untreated control; a rating 9 indicates death; settings: for herbicidal effect (0-9 scale) ABUTH: PRE, 21 days after spraying
Stellaria media [6] = assay: Post-emergence herbicidal test, STEME; set-up: key to herbicidal effect (0-9 scale) STEME / herbicidal rating STEME: A rating 0 indicates growth as untreated control; a rating 9 indicates death; settings: POST, 21 days after spraying
Summary of the method: as §1

Ipomoea hederacea [7] = assay: Post-emergence herbicidal test, IPOHE; set-up: key to herbicidal effect (0-9 scale) IPOHE / herbicidal rating IPOHE: A rating 0 indicates growth as untreated control; a rating 9 indicates death; settings: POST, 21 days after spraying
Summary of the method: as §2

Triticum aestivum [8] = assay: Pre-emergence herbicidal test, TRZAW; settings: 21 days after spraying
[9] = test system: representative range of plants; assay: Herbicidal activity, pre- and post-emergence, overall; settings: both in pre- and post-emergence
Description: (§3) To evaluate their herbicidal activity, compounds according to the invention are tested using a representative range of plants:
(§4) The pre-emergence tests involve spraying a liquid formulation of the compound onto the soil in which the seeds of the plant species mentioned above has recently been sown.
The soil used in the tests is a prepared horticultural loam. The formulations used in the tests are prepared from solutions of the test compounds in acetone containing 0.4% by weight of an alkylphenol/ethylene oxide condensate available under the trade mark TRITON X-155. These acetone solutions are diluted with water and the resulting formulations applied at dosage levels corresponding to 1000 g and 250 g/ha of active material per hectare in a volume equivalent to 900 litres per hectare. In these tests untreated sown soil are used as controls.
These acetone solutions are diluted with water and the resulting formulations applied at dosage levels equivalent to about 1000, 800, 400, 250 or 100 g/ha per hectare of test compound per pot. After spraying, the plants are placed on greenhouse benches and are cared for in the usual manner, commensurate with conventional greenhouse practices.
(§5) The herbicidal effects of the test compounds are assessed visually twenty-one days after spraying the foliage and the soil and are recorded on a 0-9 scale. A rating 0 indicates growth as untreated control, a rating 9 indicates death. An increase of 1 unit on the linear scale approximates to a 10% increase in the level of effect.

Galium aparine [10] = assay: Pre-emergence herbicidal test, GALAP; settings: PRE, 21 days after spraying
Setaria viridis [11] = assay: Pre-emergence herbicidal test, SETVI; set-up: key to herbicidal effect (0-9 scale) SETVI / herbicidal rating SETVI: A rating 0 indicates growth as untreated control; a rating 9 indicates death; settings: for herbicidal effect (0-9 scale) SETVI: PRE, 21 days after spraying
Cyperus = assay: Pre-emergence herbicidal test, Cyperus; settings: 100 g/ha
Description: as §4
(§6) The soil used in the tests is a prepared horticultural loam. The formulations used in the tests are prepared from solutions of the test compounds in acetone containing 0.4% by weight of an alkylphenol/ethylene oxide condensate available under the trade mark TRITON X-155. […] In these tests untreated sown soil are used as controls.
as §5

Stellaria media [12] = assay: Pre-emergence herbicidal test, STEME; set-up: key to herbicidal effect (0-9 scale) STEME / herbicidal rating STEME: A rating 0 indicates growth as untreated control; a rating 9 indicates death; settings: PRE, 21 days after spraying
Abutilon theophrasti [13] = assay: Post-emergence herbicidal test, ABUTH; set-up: key to herbicidal effect (0-9 scale) ABUTH / herbicidal rating ABUTH: A rating 0 indicates growth as untreated control; a rating 9 indicates death; settings: POST, 21 days after spraying
Summary of the method: as §1

Matricaria inodora [14] = assay: Pre-emergence herbicidal test, MATIN; set-up: key to herbicidal effect (0-9 scale) MATIN / herbicidal rating MATIN: A rating 0 indicates growth as untreated control; a rating 9 indicates death; settings: for herbicidal effect (0-9 scale) MATIN: PRE, 21 days after spraying
Echinochloa crus-galli [15] = assay: Post-emergence herbicidal test, ECHCG; settings: 21 days after spraying
Summary of the method: as §1

Alopecurus myosuroides [16] = assay: Pre-emergence herbicidal test, ALOMY; settings: PRE, 21 days after spraying
Echinochloa crus-galli [17] = assay: Pre-emergence herbicidal test, ECHCG; settings: 21 days after spraying
Ambrosia = assay: Pre-emergence herbicidal test, Ambrosia; settings: 100 g/ha
Description: as §4, §6, §5

Matricaria inodora [18] = assay: Post-emergence herbicidal test, MATIN; set-up: key to herbicidal effect (0-9 scale) MATIN / herbicidal rating MATIN: A rating 0 indicates growth as untreated control; a rating 9 indicates death; settings: POST, 21 days after spraying
Summary of the method: as §1

Alopecurus myosuroides [19] = assay: Post-emergence herbicidal test, ALOMY; settings: 21 days after spraying
Summary of the method: as §2

[20] = test system: representative range of plants; assay: Pre-emergence herbicidal test, summary over the plants tested; settings: 400 g/ha
Description: as §3, §4, §6, §5

Zea mays [21] = assay: Post-emergence herbicidal test, ZEAMX; settings: 21 days after spraying
Summary of the method: as §1

Ipomoea hederacea [22] = assay: Pre-emergence herbicidal test, IPOHE; set-up: key: A rating 0 indicates growth as untreated control; a rating 9 indicates death; settings: 21 days after spraying
[23] = test system: representative range of plants; assay: Post-emergence herbicidal test, summary over the plants tested
Description: as §3
[…] After spraying, the plants are placed on greenhouse benches and are cared for in the usual manner, commensurate with conventional greenhouse practices.
as §5

SMILES: Cn1c(C(F)(F)F)cc(=O)n(-n2ncc3cc([N+](=O)[O-])ccc32)c1=O [Example 7]
- herbicidal effect (0-9 scale) SETVI (Setaria viridis [1]; 25 g/ha): 8
- herbicidal effect (0-9 scale) SETVI (Setaria viridis [1]; 100 g/ha): 9
- herbicidal effect (0-9 scale) SETVI (Setaria viridis [1]; 400 g/ha): 9
- control of Setaria (Setaria viridis [1]; post-emergence, 100 g/ha): excellent control
- herbicidal effect (0-9 scale) ZEAMX (Zea mays [2]; 100 g/ha): 0
- herbicidal effect (0-9 scale) ZEAMX (Zea mays [2]; 400 g/ha): 4
- selectivity in maize (Zea mays [2]; pre-emergence, 100 g/ha): surprisingly good selectivity
- herbicidal effect (0-9 scale) GALAP (Galium aparine [3]; 25 g/ha): 6
- herbicidal effect (0-9 scale) GALAP (Galium aparine [3]; 100 g/ha): 8
- herbicidal effect (0-9 scale) GALAP (Galium aparine [3]; 400 g/ha): 9
- control of Galium aparine (Galium aparine [3]; post-emergence, 100 g/ha): excellent control
- herbicidal effect (0-9 scale) TRZAW (Triticum aestivum [4]; 25 g/ha): 0
- herbicidal effect (0-9 scale) TRZAW (Triticum aestivum [4]; 100 g/ha): 1
- herbicidal effect (0-9 scale) TRZAW (Triticum aestivum [4]; 400 g/ha): 3
- wheat tolerance (Triticum aestivum [4]; post-emergence, 100 g/ha): good wheat tolerance
- herbicidal effect (0-9 scale) ABUTH (Abutilon theophrasti [5]; 100 g/ha): 9
- herbicidal effect (0-9 scale) ABUTH (Abutilon theophrasti [5]; 400 g/ha): 9
- control of Abutilon (Abutilon theophrasti [5]; pre-emergence, 100 g/ha): good control
- herbicidal effect (0-9 scale) STEME (Stellaria media [6]; 25 g/ha): 4
- herbicidal effect (0-9 scale) STEME (Stellaria media [6]; 100 g/ha): 8
- herbicidal effect (0-9 scale) STEME (Stellaria media [6]; 400 g/ha): 9
- herbicidal effect (0-9 scale) IPOHE (Ipomoea hederacea [7]; 25 g/ha): 9
- herbicidal effect (0-9 scale) IPOHE (Ipomoea hederacea [7]; 100 g/ha): 9
- herbicidal effect (0-9 scale) IPOHE (Ipomoea hederacea [7]; 400 g/ha): 9
- herbicidal effect (0-9 scale) TRZAW (Triticum aestivum [8]; 100 g/ha): 1
- herbicidal effect (0-9 scale) TRZAW (Triticum aestivum [8]; 400 g/ha): 4
- herbicidal performance [9]: good performance
- herbicidal effect (0-9 scale) GALAP (Galium aparine [10]; 100 g/ha): 4
- herbicidal effect (0-9 scale) GALAP (Galium aparine [10]; 400 g/ha): 8
- herbicidal effect (0-9 scale) SETVI (Setaria viridis [11]; 100 g/ha): 8
- herbicidal effect (0-9 scale) SETVI (Setaria viridis [11]; 400 g/ha): 9
- control of Setaria (Setaria viridis [11]; pre-emergence, 100 g/ha): good control
- control of Cyperus (Cyperus): good control
- herbicidal effect (0-9 scale) STEME (Stellaria media [12]; 100 g/ha): 5
- herbicidal effect (0-9 scale) STEME (Stellaria media [12]; 400 g/ha): 9
- herbicidal effect (0-9 scale) ABUTH (Abutilon theophrasti [13]; 25 g/ha): 8
- herbicidal effect (0-9 scale) ABUTH (Abutilon theophrasti [13]; 100 g/ha): 9
- herbicidal effect (0-9 scale) ABUTH (Abutilon theophrasti [13]; 400 g/ha): 9
- herbicidal effect (0-9 scale) MATIN (Matricaria inodora [14]; 100 g/ha): 9
- herbicidal effect (0-9 scale) MATIN (Matricaria inodora [14]; 400 g/ha): 9
- control of Matricaria (Matricaria inodora [14]; pre-emergence, 100 g/ha): good control
- herbicidal effect (0-9 scale) ECHCG (Echinochloa crus-galli [15]; 25 g/ha): 2
- herbicidal effect (0-9 scale) ECHCG (Echinochloa crus-galli [15]; 100 g/ha): 7
- herbicidal effect (0-9 scale) ECHCG (Echinochloa crus-galli [15]; 400 g/ha): 8
- herbicidal effect (0-9 scale) ALOMY (Alopecurus myosuroides [16]; 100 g/ha): 3
- herbicidal effect (0-9 scale) ALOMY (Alopecurus myosuroides [16]; 400 g/ha): 6
- herbicidal effect (0-9 scale) ECHCG (Echinochloa crus-galli [17]; 100 g/ha): 7
- herbicidal effect (0-9 scale) ECHCG (Echinochloa crus-galli [17]; 400 g/ha): 8
- control of Ambrosia (Ambrosia): good control
- herbicidal effect (0-9 scale) MATIN (Matricaria inodora [18]; 25 g/ha): 7
- herbicidal effect (0-9 scale) MATIN (Matricaria inodora [18]; 100 g/ha): 8
- herbicidal effect (0-9 scale) MATIN (Matricaria inodora [18]; 400 g/ha): 9
- herbicidal effect (0-9 scale) ALOMY (Alopecurus myosuroides [19]; 25 g/ha): 2
- herbicidal effect (0-9 scale) ALOMY (Alopecurus myosuroides [19]; 100 g/ha): 4
- herbicidal effect (0-9 scale) ALOMY (Alopecurus myosuroides [19]; 400 g/ha): 6
- control of the weeds [20]: all of the weeds except Alopecurus were well controlled
- herbicidal effect (0-9 scale) ZEAMX (Zea mays [21]; 25 g/ha): 2
- herbicidal effect (0-9 scale) ZEAMX (Zea mays [21]; 100 g/ha): 3
- herbicidal effect (0-9 scale) ZEAMX (Zea mays [21]; 400 g/ha): 5
- herbicidal effect (0-9 scale) IPOHE (Ipomoea hederacea [22]; 100 g/ha): 7
- herbicidal effect (0-9 scale) IPOHE (Ipomoea hederacea [22]; 400 g/ha): 9
- control of all of the broadleaf weeds ([23]; 100 g/ha): excellent control
- control of the weeds ([23]; dose not given): good cross spectrum control on both broadleaf weeds and grasses except Alopecurus
- crop tolerance ([23]; dose not given): no observable crop tolerance
